From patent publication US4223041A, “Urea derivatives to treat anxiety and aggressivity” (Labaz, priority 1976, dated 1980)

Columns and labels:
[1] = "Electrically-provoked combat" test (anxiolytic action); assay type: in vivo, mouse; conditions: mice
From the text: Under certain conditions, a pair of mice reacts to an electric stimulus by a series of combats which are provoked by the anxiety felt by the animals as a result of the electric shock. This anxiety is expressed by a combat with the other animal which is rendered responsible. For this reason, the test described hereunder can be considered as a means of evaluating the anxiolytic action of a compound. Two mice which have been previously on a diet consisting only of water are placed together in a cage. They are then submitted to a series of electric impulses of an intensity varying between 40 and 80 volts according to the sensitivity of the animals. The test is first carried out with untreated animals as controls and then with the same animals treated 30 minutes before the test with a dose of the compound to be studied.
Note is taken on the number of combats engaged. The results are expressed in percentage of decrease in the number of combats engaged by the treated animals in comparison with the number of combats registered before treatment.

[2] = Action on the pentylenetetrazole-induced seizure (anticonvulsant activity); assay type: in vivo, mouse; conditions: Mus musculus, 3 h; 320 mg/kg oral, mice, 15 min before 125 mg/kg pentylenetetrazole; read-out: % of protection against death
Description: The purpose of this test which is carried out on mice is to determine whether the compounds of the invention, when given preventively by oral route, are capable at certain doses of protecting some of the animals against the epileptic seizure produced by a predetermined dose of pentylenetetrazole which would be 100% fatal in the absence of the compound.
The compound to be studied was administered fifteen minutes before an injection of 125 mg/kg of pentylenetetrazole and note was taken of the number of deaths occurring during the three hours following this injection. The results were expressed in percentage of protection of the animals against death at the dose studied.

Structure (SMILES): CCCC(CCC)(CCC)NC(N)=O [Compound A, 1-(1,1-Di-n-propyl-n-butyl)-urea]
- inhibition in vivo at 58 mg/kg ([1]; Mus musculus, 0.5 h, 58 mg/kg, 30 min before test, read-out: % of decrease in number of combats): 50%
- decrease in number of combats obtainable without altering spontaneous motoricity ([1]; without action on spontaneous motoricity): 80%
- responders at 320 mg/kg [2]: 50%
